Reference: publication PMC5923142, “Selection and Characterization of Rupintrivir-Resistant Norwalk Virus Replicon Cells In Vitro” (Antimicrobial Agents and Chemotherapy, 2018)

System: recombinant MNV I109V mutant
Assay: Antiviral effect against recombinant MNV I109V mutant infection of BV-2 cells (TCID50)
Assay type: cell-based, murine norovirus
Details: MOIs 0.1 and 1
Method: BV-2 cells were infected with recombinant WT MNV or the MNV I109V mutant at an MOI of 0.1 or 1 for 1 h in the CO2 incubator at 37°C. After incubation, the supernatant was removed and the cells were washed twice with PBS, and then complete DMEM containing various concentrations of rupintrivir or 2CMC was added to the cells. After 24 h for incubation, the virus titers of the supernatant were determined by measurement of the TCID50. On the basis of the TCID50, the 90% effective concentration (EC90) values of rupintrivir and 2CMC were calculated using XLfit (version 5.3) software.

C[C@@]1(O)[C@H](O)[C@@H](CO)O[C@H]1n1ccc(N)nc1=O [2CMC, 2-C-methylcytidine]
difference in EC90 values between I109V and WT viruses: no significant difference
